Measured values as given in patent US5324739A (priority 1993, dated 1994).

Legend:
MRC-5 cells = assay: cytotoxicity / antiproliferative assay on dividing and confluent MRC-5 cells (MTT); type: cell-based, human; settings: proliferating vs quiescent cells
Protocol: Evaluation of the antiproliferative activity of fractions using MRC-5 cells in culture was performed using the following procedure: Human embryonic lung (MRC-5) cells were obtained from the American Type Culture Collection. The cells were grown in Eagle's Minimum Essential Medium with Earle's salts (EMEM, JRH Bioscience) supplemented with 10% fetal calf serum (Hyclone), 0.75 mg/mL NaHCO3, 100 units of penicillin per mL, and 100 μg streptomycin per mL (Gibco Labs). As in the AB1 cell assay, cell growth and survival was determined calorimetrically, based upon the uptake and reduction of the tetrazolium salt, MTT, to a blue-colored formazan product by mitochondrial enzymes of living cells. The effect of the fractions, as potential inhibitors at different stages of the cell cycle, was determined by performing the assay using both resting and rapidly dividing cells. […] At the end of the incubation, the medium was aspirated, the cells were rinsed once using PBS, and 1.0 mg/mL of MTT was added to each well. The plates were incubated with MTT for three hours, after which the MTT was aspirated and isopropanol was added to dissolve any formazen crystals that formed. Plates were "read" on an Elisa reader at 570 nm (principal wavelength) and again at 650 wavelength (reference wavelength) to correct for non-specific background absorbance, using a Thermomax Spectrophotometer (Molecular Devices). […]

proliferating cells = assay: administration of formulations containing Curacins A and B to mice (data not shown); type: in vivo; settings: various direct methods and oral
Text: In addition, these tests indicate that Curacins A and B can be administered to animal subjects using dosage protocols that are substantially similar to such protocols used with other antimitotics.

spleen lymphocytes = assay: ex vivo experiments on spleen lymphocytes after administration to mice; settings: 1-10 mg/kg
MRC-5 cells; AB1 cells = assay: activity of second-stage fractions and of the separated isomers (FIG. 1; test not stated); type: cell-based; settings: Curacin A vs Curacin B
Protocol: Elution in the second stage was performed within a much smaller range of increasingly greater amounts of ethyl acetate in hexane (1 to 5% in 0.5 to 1.0% increments). […] Fractions 5-9 were pooled and, as such, represented about 200 mg total.
Since the Curacin A and Curacin B compounds were […] to CH2 N2, methylation offered a way to purify the compound from the contaminants in the extract. After reaction of the extract with CH2 N2, the extract was subjected to high performance liquid chromatography (HPLC) in an effort to separate the two isomers. […]
Evaluation of the antiproliferative activity of fractions using MRC-5 cells in culture was performed using the following procedure: Human embryonic lung (MRC-5) cells were obtained from the American Type Culture Collection. […] As in the AB1 cell assay, cell growth and survival was determined calorimetrically, based upon the uptake and reduction of the tetrazolium salt, MTT, to a blue-colored formazan product by mitochondrial enzymes of living cells. The effect of the fractions, as potential inhibitors at different stages of the cell cycle, was determined by performing the assay using both resting and rapidly dividing cells. […]

[1] = system: 60 different human tumor cell lines; settings: for cytotoxicity: cancer cell lines
Protocol: In these examples, an extract of Lyngbya majuscula containing Curacins A and B was subjected to the drug screening procedure employed by the National Cancer Institute for the screening of drugs having possible anticancer utility.
The screening procedure employed a diverse, disease-oriented panel consisting of 60 different human tumor cell lines organized into seven disease-specific subpanels. The extract was tested over a wide range of concentrations for cytotoxic or growth-inhibitory effects against each cell line comprising the panel. The seven subpanels represented diverse histologies (leukemias, melanomas, and tumors of the lung, colon, kidney, ovary, and brain).
The extract was tested over two days in which the cells were continuously exposed to five log10 -spaced concentrations of the drug starting at 10^-4 μg/mL. The tests produced 60 individual dose-response curves, one for each cell line (i.e., one for each example).
To produce data for the mean-graph format shown in FIG. 7, a concentration of the extract that produced a target level response was calculated for each cell line. Three different response parameters were evaluated. The first response parameter was the "GI50," which is the concentration of the extract that produced an apparent 50% decrease in the number of tumor cells relative to the appropriate control (not exposed to extract) at the end of the incubation period. The second response parameter was the "TGI," which is the concentration at which the number of tumor cells remaining at the end of the incubation period substantially equaled the number of tumor cells existing at the start of the incubation period. The third response parameter was the "LC50," which is the concentration of extract that caused an apparent 50 percent reduction in the number of tumor cells relative to the appropriate control (not exposed to extract) at the start of the incubation period.
In a typical GI50 mean graph (e.g., left graph of FIG. 7), the relative position of the vertical reference line along the horizontal concentration axis is obtained by averaging the negative log10 GI50 values for all the cell lines tested against the extract. Horizontal bars are then plotted for the individual negative log10 GI50 values of each cell line relative to the vertical reference line. […] The length of a bar is proportional to the difference between the log10 GI50 value obtained with the particular cell line and the mean (represented by the vertical reference line).
COMPARE is used to rank the similarity of the mean graph profile of the sample extract or drug to the patterns of all the other compounds in the NCI screening database or a defined subset thereof.

brine shrimp = type: in vivo; settings: see Example 1
Protocol: In this Example, various concentrations of the organic extract of Lyngbya majuscula were tested using a brine-shrimp assay. The assay was performed according to the following procedure: 24 hours before performing the assay, brine shrimp eggs were hatched in sea water (made by dissolving INSTANT OCEAN dry concentrate in water according to manufacturer's directions). A volume of the organic extract of Lyngbya majuscula was placed in a 50-mL conical flask (weighed beforehand to obtain the tare weight) and the solvent was evaporated. The flask was re-weighed and the tare weight subtracted to yield the weight of non-volatile residue from the extract. The residue was dissolved with a suitable volume of ethanol to yield a concentration of 0.1 mg residue per μL ethanol. Four vials were prepared, the first containing 50 μL of the ethanol solution, the second containing 10 μL of the ethanol solution plus 40 μL ethanol, the third containing 2.5 μL of the ethanol solution plus 47.5 μL ethanol, and the fourth containing none of the solution and 50 μL ethanol (serving as a negative control). Between 10 and 15 live brine shrimp were placed in each vial and stored for 24 hours, after which the number of live and dead shrimp were tallied for each vial. […]

Compound: C=CC[C@@H](CC/C(C)=C/C=C/CC/C=C\[C@@H]1CSC([C@@H]2C[C@@H]2C)=N1)OC [Curacin A]
- activity against proliferating versus quiescent cells (MRC-5 cells): more active against proliferating cells than against quiescent cells
- bioavailability (proliferating cells): bioavailable
- effectiveness in vivo against proliferating cells (proliferating cells): effective in vivo against proliferating cells
- effect against spleen lymphocytes (spleen lymphocytes): substantial effect against spleen lymphocytes
- activity of Curacin A relative to Curacin B (times more active) (MRC-5 cells; AB1 cells): about 10^2
- mode of action indicated by COMPARE analysis ([1]; COMPARE data, Tables 1 and 2): functions as an antimitotic
- cytotoxicity [1]: cytotoxic
- antiproliferative activity against living cells in culture ([1]; living cells in culture): substantial antiproliferative activity
- antimitotic activity ([1]; various tests): substantial antimitotic activity
- effectiveness for reducing a population of representative arthropods (brine shrimp) (brine shrimp): effectiveness

Compound: C=CC[C@@H](CC/C(C)=C/C=C\CC/C=C\[C@@H]1CSC([C@@H]2C[C@@H]2C)=N1)OC [Curacin B]
- activity against proliferating versus quiescent cells (MRC-5 cells): more active against proliferating cells than against quiescent cells
- bioavailability (proliferating cells): bioavailable
- effectiveness in vivo against proliferating cells (proliferating cells): effective in vivo against proliferating cells
- effect against spleen lymphocytes (spleen lymphocytes): substantial effect against spleen lymphocytes
- cytotoxicity [1]: cytotoxic
